In patent publication US8013156B2 (Exelixis, Inc., priority 2003, dated 2011):
pIC50: −log10 of the molar value.

biological target: Tie-2 (Homo sapiens, UniProt Q02763); experiment: Tie-2 tyrosine kinase activity assay (luciferase/luciferin ATP consumption with pEY substrate, or 33P-ATP incorporation); format: biochemical; conditions: human enzyme Tie-2
Protocol: One measure of inhibition is Ki. […] The Ki for a compound is determined from the IC50 based on three assumptions. First, only one compound molecule binds to the enzyme and there is no cooperativity. […] Third, the enzymatic rate of the enzyme-inhibitor complex is zero. The rate data (i.e. compound concentration) are fitted to the equation:
[formula] where V is the observed rate, Vmax, is the rate of the free enzyme, I0 is the inhibitor concentration, E0 is the enzyme concentration, and Kd is the dissociation constant of the enzyme-inhibitor complex.
Tyrosine kinase activity is determined by 1) measurement of kinase-dependent ATP consumption by in the presence of a generic substrate such as […], tyrosine (pEY), by luciferase/luciferin-mediated chemiluminescence or; 2) incorporation of radioactive phosphate derived from ^33P-ATP into a generic substrate which has been adsorbed onto the well surface of polystyrene microtiter plates. Phosphorylated substrate products are quantified by scintillation spectrometry.
Inhibition is indicated as IC50 with following key: A=IC50 less than 50 nM, B=IC50 greater than 50 nM, but less than or equal to 1000 nM, C=IC50 greater than 1000 nM, but less than 10,000 nM, D=IC50 10,000 nM or greater, and “-”=no data available. The abbreviation for human enzyme, Tie-2, is defined as tyrosine kinase with immunoglobulin and EGF repeats.

Sequence of Tie-2 (Q02763 23-1124): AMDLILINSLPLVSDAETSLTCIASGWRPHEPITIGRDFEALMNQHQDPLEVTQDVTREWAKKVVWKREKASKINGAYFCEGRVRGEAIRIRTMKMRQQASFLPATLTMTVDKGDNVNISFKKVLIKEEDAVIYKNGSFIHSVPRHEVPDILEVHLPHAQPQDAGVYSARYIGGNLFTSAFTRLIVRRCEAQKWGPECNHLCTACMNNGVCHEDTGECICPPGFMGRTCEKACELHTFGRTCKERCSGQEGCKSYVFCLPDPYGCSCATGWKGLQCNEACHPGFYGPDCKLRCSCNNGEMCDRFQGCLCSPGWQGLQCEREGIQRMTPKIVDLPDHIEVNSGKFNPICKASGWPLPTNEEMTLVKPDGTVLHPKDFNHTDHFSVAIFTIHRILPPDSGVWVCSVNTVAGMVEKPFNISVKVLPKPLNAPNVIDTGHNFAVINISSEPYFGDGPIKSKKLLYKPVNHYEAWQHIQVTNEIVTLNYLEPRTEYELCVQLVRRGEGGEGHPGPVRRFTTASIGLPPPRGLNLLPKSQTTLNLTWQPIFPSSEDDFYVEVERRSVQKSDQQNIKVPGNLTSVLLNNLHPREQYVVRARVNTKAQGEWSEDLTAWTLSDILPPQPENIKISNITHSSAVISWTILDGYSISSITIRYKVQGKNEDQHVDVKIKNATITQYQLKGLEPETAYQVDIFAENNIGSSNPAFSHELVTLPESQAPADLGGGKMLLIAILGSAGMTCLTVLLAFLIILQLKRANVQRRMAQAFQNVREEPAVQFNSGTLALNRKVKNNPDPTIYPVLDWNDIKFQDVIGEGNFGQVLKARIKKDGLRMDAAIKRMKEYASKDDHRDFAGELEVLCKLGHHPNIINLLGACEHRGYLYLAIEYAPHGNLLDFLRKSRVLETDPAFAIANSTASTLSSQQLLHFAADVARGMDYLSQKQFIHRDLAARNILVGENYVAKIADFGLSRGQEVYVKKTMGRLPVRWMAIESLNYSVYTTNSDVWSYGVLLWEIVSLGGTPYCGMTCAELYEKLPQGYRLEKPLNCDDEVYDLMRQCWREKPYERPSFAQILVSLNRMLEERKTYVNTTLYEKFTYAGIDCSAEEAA

pIC50	Compound
6.00 to 7.30	Nc1nccc(COc2cccnc2N2CCN(C(=O)Nc3cccc(C(F)(F)F)c3F)CC2)n1 [Example 195, 4-(3-{[(2-aminopyrimidin-4-yl)methyl]oxy}pyridin-2-yl)-N-[2-fluoro-3-(trifluoromethyl)phenyl]piperazine-1-carboxamide]
> 7.30	Nc1nccc(COc2nsnc2N2CCN(C(=O)Nc3cccc(C(F)(F)F)c3)CC2)n1 [Example 231, 4-(4-{[(2-aminopyrimidin-4-yl)methyl]oxy}-1,2,5-thiadiazol-3-yl)-N-[3-(trifluoromethyl)phenyl]piperazine-1-carboxamide]
> 7.30	CCc1cccc(NC(=O)N2CCN(c3ccccc3OCc3ccnc(N)n3)CC2)c1 [Example 256, 4-(2-{[(2-aminopyrimidin-4-yl)methyl]oxy}phenyl)-N-(3-ethylphenyl)piperazine-1-carboxamide]
6.00 to 7.30	Nc1nccc(COc2cccnc2N2CCN(C(=O)Nc3cc(Cl)ccc3F)CC2)n1 [Example 193, 4-(3-{[(2-aminopyrimidin-4-yl)methyl]oxy}pyridin-2-yl)-N-(5-chloro-2-fluorophenyl)piperazine-1-carboxamide]
> 7.30	Nc1nccc(COc2nccnc2N2CCN(C(=O)Nc3cc(F)cc(C(F)(F)F)c3)CC2)n1 [Example 218, 4-(3-{[(2-aminopyrimidin-4-yl)methyl]oxy}pyrazin-2-yl)-N-[3-fluoro-5-(trifluoromethyl)phenyl]piperazine-1-carboxamide]
6.00 to 7.30	CN1CCN(CC(=O)Nc2cc(COc3cccnc3N3CCN(C(=O)Nc4cc(C(F)(F)F)ccc4F)CC3)ccn2)CC1 [Example 211, N-[2-fluoro-5-(trifluoromethyl)phenyl]-4-(3-{[(2-{[(4-methylpiperazin-1-yl)acetyl]amino}pyridin-4-yl)methyl]oxy}pyridin-2-yl)piperazine-1-carboxamide]
> 7.30	CCc1cc(CC)cc(NC(=O)N2CCN(c3ccccc3OCc3ccnc(N)n3)CC2)c1 [Example 279, 4-(2-{[(2-aminopyrimidin-4-yl)methyl]oxy}phenyl)-N-(3,5-diethylphenyl)piperazine-1-carboxamide]
> 7.30	Nc1nccc(COc2ccc(Cl)nc2N2CCN(C(=O)Nc3cc(C(F)(F)F)cc(C(F)(F)F)c3)CC2)n1 [Example 244, 4-(3-{[(2-aminopyrimidin-4-yl)methyl]oxy}-6-chloropyridin-2-yl)-N-[3,5-bis(trifluoromethyl)phenyl]piperazine-1-carboxamide]
> 7.30	COc1cc2nccc(Oc3nsnc3N3CCN(C(=O)Nc4cc(C(F)(F)F)cc(C(F)(F)F)c4)CC3)c2cc1OC [Example 276, 4-(4-{[6,7-bis(methyloxy)quinolin-4-yl]oxy}-1,2,5-thiadiazol-3-yl)-N-[3,5-bis(trifluoromethyl)phenyl]piperazine-1-carboxamide]
> 7.30	CCc1cc(NC(=O)N2CCN(c3nccnc3OCc3ccnc(N)n3)CC2)ccc1F [Example 241, 4-(3-{[(2-aminopyrimidin-4-yl)methyl]oxy}pyrazin-2-yl)-N-(3-ethyl-4-fluorophenyl)piperazine-1-carboxamide]
> 7.30	Nc1nccc(COc2nccnc2N2CCN(C(=O)Nc3cc(Cl)cc(Cl)c3)CC2)n1 [Example 217, 4-(3-{[(2-aminopyrimidin-4-yl)methyl]oxy}pyrazin-2-yl)-N-(3,5-dichlorophenyl)piperazine-1-carboxamide]
> 7.30	Nc1nccc(COc2cccnc2N2CCN(C(=O)Nc3cc(Cl)cc(Cl)c3)CC2)n1 [Example 197, 4-(3-{[(2-aminopyrimidin-4-yl)methyl]oxy}pyridin-2-yl)-N-(3,5-dichlorophenyl)piperazine-1-carboxamide]
> 7.30	NC(=O)c1cnc(OCc2ccnc(N)n2)c(N2CCN(C(=O)Nc3cc(C(F)(F)F)cc(C(F)(F)F)c3)CC2)n1 [Example 275, 5-{[(2-aminopyrimidin-4-yl)methyl]oxy}-6-[4-({[3,5-bis(trifluoromethyl)phenyl]amino}carbonyl)piperazin-1-yl]pyrazine-2-carboxamide]
5.00 to 6.00	Nc1nccc(COc2nsnc2N2CCN(C(=O)Nc3cc(Cl)ccc3F)CC2)n1 [Example 257, 4-(4-{[(2-aminopyrimidin-4-yl)methyl]oxy}-1,2,5-thiadiazol-3-yl)-N-(5-chloro-2-fluorophenyl)piperazine-1-carboxamide]

More lines, now with the values behind:

Compound	pIC50
CC1CN(c2nsnc2OCc2ccncc2)CC(C)N1C(=O)Nc1cccc(C(F)(F)F)c1 (stereo not drawn) [Example 69, 2,6-dimethyl-4-{4-[(pyridin-4-ylmethyl)oxy]-1,2,5-thiadiazol-3-yl}-N-[3-(trifluoromethyl)phenyl]piperazine-1-carboxamide]	6.00 to 7.30
Nc1nccc(COc2cccnc2N2CCN(C(=O)Nc3cc(C(F)(F)F)ccc3Cl)CC2)n1 [Example 192, 4-(3-{[(2-aminopyrimidin-4-yl)methyl]oxy}pyridin-2-yl)-N-[2-chloro-5-(trifluoromethyl)phenyl]piperazine-1-carboxamide]	> 7.30
CCNc1nccc(COc2nsnc2N2CCN(C(=O)Nc3cc(C(F)(F)F)cc(C(F)(F)F)c3)CC2)n1 [Example 121, N-[3,5-bis(trifluoromethyl)phenyl]-4-[4-({[2-(ethylamino)pyrimidin-4-yl]methyl}oxy)-1,2,5-thiadiazol-3-yl]piperazine-1-carboxamide]	> 7.30
CC1CN(c2nccnc2OCc2ccncc2)C(C)CN1C(=O)Nc1cc(C(F)(F)F)cc(C(F)(F)F)c1 (stereo not drawn) [Example 78, N-[3,5-bis(trifluoromethyl)phenyl]-2,5-dimethyl-4-{3-[(pyridin-4-ylmethyl)oxy]pyrazin-2-yl}piperazine-1-carboxamide]	> 7.30
O=C(Cc1cc(C(F)(F)F)ccc1C(F)(F)F)NC1CCN(c2nsnc2OCc2ccncc2)C1 (stereo not drawn) [Example 60, 2-[2,5-bis(trifluoromethyl)phenyl]-N-(1-{4-[(pyridin-4-ylmethyl)oxy]-1,2,5-thiadiazol-3-yl}pyrrolidin-3-yl)acetamide]	6.00 to 7.30
O=C(Nc1cc(C(F)(F)F)cc(C(F)(F)F)c1)N1CCN(c2nsnc2OCc2ccnc(NCc3ccccc3)n2)CC1 [Example 117, N-[3,5-bis(trifluoromethyl)phenyl]-4-{4-[({2-[(phenylmethyl)amino]pyrimidin-4-yl}methyl)oxy]-1,2,5-thiadiazol-3-yl}piperazine-1-carboxamide]	6.00 to 7.30
CC1CN(c2nsnc2OCc2ccncc2)CCN1C(=O)Nc1cccc(C(F)(F)F)c1 (stereo not drawn) [Example 41, 2-methyl-4-{4-[(pyridin-4-ylmethyl)oxy]-1,2,5-thiadiazol-3-yl}-N-[3-(trifluoromethyl)phenyl]piperazine-1-carboxamide]	6.00 to 7.30
O=C(Nc1cccc(C(F)(F)F)c1)N1CCCN(c2nccnc2OCc2ccncc2)CC1 [Example 77, 4-{3-[(pyridin-4-ylmethyl)oxy]pyrazin-2-yl}-N-[3-(trifluoromethyl)phenyl]-1,4-diazepane-1-carboxamide]	6.00 to 7.30
CCc1cc(NC(=O)N2CCN(c3ncccc3OCc3ccnc(N)n3)CC2)ccc1F [Example 176, 4-(3-{[(2-aminopyrimidin-4-yl)methyl]oxy}pyridin-2-yl)-N-(3-ethyl-4-fluorophenyl)piperazine-1-carboxamide]	> 7.30
O=C(Nc1cc(C(F)(F)F)cc(C(F)(F)F)c1)N1CCN(c2nsnc2OCc2ccnc(NC3CCCC3)n2)CC1 [Example 128, N-[3,5-bis(trifluoromethyl)phenyl]-4-[4-({[2-(cyclopentylamino)pyrimidin-4-yl]methyl}oxy)-1,2,5-thiadiazol-3-yl]piperazine-1-carboxamide]	6.00 to 7.30
COC(=O)Nc1cc(COc2nsnc2N2CCN(C(=O)Nc3cc(C(F)(F)F)cc(C(F)(F)F)c3)CC2)ccn1 [Example 101, methyl {4-[({4-[4-({[3,5-bis(trifluoromethyl)phenyl]amino}carbonyl)piperazin-1-yl]-1,2,5-thiadiazol-3-yl}oxy)methyl]pyridin-2-yl}carbamate]	> 7.30
O=C(Nc1cc(C(F)(F)F)cc(C(F)(F)F)c1)N1CCN(c2nsnc2NCc2ccncc2)CC1 [Example 44, N-[3,5-bis(trifluoromethyl)phenyl]-4-{4-[(pyridin-4-ylmethyl)amino]-1,2,5-thiadiazol-3-yl}piperazine-1-carboxamide]	5.00 to 6.00
COC(=O)Nc1cc(COc2cccnc2N2CCN(C(=O)Nc3cccc(OC)c3)CC2)ccn1 [Example 165, methyl {4-[({2-[4-({[3-(methyloxy)phenyl]amino}carbonyl)piperazin-1-yl]pyridin-3-yl}oxy)methyl]pyridin-2-yl}carbamate]	6.00 to 7.30
CNC(=O)N1CCN(c2ncccc2OCc2ccnc(NC(=O)CN3CCN(C)CC3)c2)CC1 [Example 191, N-methyl-4-(3-{[(2-{[(4-methylpiperazin-1-yl)acetyl]amino}pyridin-4-yl)methyl]oxy}pyridin-2-yl)piperazine-1-carboxamide]	5.00 to 6.00
O=C(Nc1cccc(C(F)(F)F)c1)N1CCN(c2ccccc2OCc2ccncc2)CC1 [Example 73, 4-{2-[(pyridin-4-ylmethyl)oxy]phenyl}-N-[3-(trifluoromethyl)phenyl]piperazine-1-carboxamide]	6.00 to 7.30
CC(C)c1ccc(NC(=O)N2CCN(c3nsnc3OCc3ccncc3)CC2C)cc1 (stereo not drawn) [Example 50, 2-methyl-N-[4-(1-methylethyl)phenyl]-4-{4-[(pyridin-4-ylmethyl)oxy]-1,2,5-thiadiazol-3-yl}piperazine-1-carboxamide]	5.00 to 6.00
